Each structure is given as a SMILES string.

The first assay concerns NMNAT2. Description: NMNAT2-Hibit nano-luciferase activity in stably transfected U87MG cells, various concentrations, 24 hours. Format: cell-based. The conditions noted are these: U87MG cells stably transfected with NMNAT2-Hibit luc plasmid. The procedure:
Selected compounds were tested in vitro. U87MG cells were stably transfected with NMNAT2-Hibit luc plasmid. Cells were treated with a test compound at various concentrations for 24 hours. Cells were then collected and assayed for nano-luciferase activity.
As for `Cc1ccc(Cn2c3c(c4ccccc42)C(C(=O)NCc2ccco2)CCC3)cc1` (stereo not shown) [BC20383], the “E: compound efficacy for NMNAT2 activation (concentration giving >25% increase in NMNAT2 luciferase activity)” value is given as “+ (“+” >25% increase in NMNAT2 luciferase activity at >25 μM.)”.
For `Cc1ccc(Cn2c3c(c4ccccc42)C(C(=O)NCC2CCCO2)CCC3)cc1` (stereo not shown) [BC20384], the “E: compound efficacy for NMNAT2 activation (concentration giving >25% increase in NMNAT2 luciferase activity)” value is listed as “+ (“+” >25% increase in NMNAT2 luciferase activity at >25 μM.)”.
On to `Cc1ccc(Cn2c3c(c4ccccc42)C(C(=O)NCc2ccccc2F)CCC3)cc1` (stereo not shown) [BC20385], for which the “E: compound efficacy for NMNAT2 activation (concentration giving >25% increase in NMNAT2 luciferase activity)” value was “++ (“++” >25% increase in NMNAT2 luciferase activity at >1 μM ≤25 μM.)”.
The same measure, in the same setting: as for `Cc1ccc(Cn2c3c(c4ccccc42)C(C(=O)NCc2cccc(C)c2)CCC3)cc1` (stereo not shown) [BC20386], the entry is “++ (“++” >25% increase in NMNAT2 luciferase activity at >1 μM ≤25 μM.)”.
The same measure, in the same setting: in the case of `COc1cccc(CNC(=O)C2CCCc3c2c2ccccc2n3Cc2ccc(C)cc2)c1` (stereo not shown) [BC20387] it was “+ (“+” >25% increase in NMNAT2 luciferase activity at >25 μM.)”; in that of `Cc1ccc(Cn2c3c(c4ccccc42)C(C(=O)NCCc2ccccc2)CCC3)cc1` (stereo not shown) [BC20388], “+ (“+” >25% increase in NMNAT2 luciferase activity at >25 μM.)”; in that of `Cc1ccc(Cn2c3c(c4ccccc42)C(C(=O)NCc2cccnc2)CCC3)cc1` (stereo not shown) [BC20389], “++ (“++” >25% increase in NMNAT2 luciferase activity at >1 μM ≤25 μM.)”.
On to `Cc1ccc(Cn2c3c(c4ccccc42)C(C(=O)NCc2ccncc2)CCC3)cc1` (stereo not shown) [BC20390], for which the “E: compound efficacy for NMNAT2 activation (concentration giving >25% increase in NMNAT2 luciferase activity)” value is reported as “+ (“+” >25% increase in NMNAT2 luciferase activity at >25 μM.)”.
Still for that read-out and setting: in the case of `CCCCN(CC)Cc1ccc(CNC(=O)C2CCCc3c2c2ccccc2n3Cc2ccc(C)cc2)o1` (stereo not shown) [BC20391] it was “++ (“++” >25% increase in NMNAT2 luciferase activity at >1 μM ≤25 μM.)”; in that of `Cc1ccc(C)c(Cn2c(C(F)F)c(CCC(=O)NCC3CCCO3)c3ccccc32)c1` (stereo not shown) [BC20392], “+ (“+” >25% increase in NMNAT2 luciferase activity at >25 μM.)”; in that of `Cc1ccc(C)c(Cn2c(C(F)F)c(CCC(=O)NCc3ccccc3F)c3ccccc32)c1` [BC20393], “++ (“++” >25% increase in NMNAT2 luciferase activity at >1 μM ≤25 μM.)”.
Same read-out and setting: in the case of `Cc1ccc(C)c(Cn2c(C(F)F)c(CCC(=O)NCc3cccc(F)c3)c3ccccc32)c1` [BC20394] it was “+ (“+” >25% increase in NMNAT2 luciferase activity at >25 μM.)”.
In the case of `Cc1ccc(C)c(Cn2c(C(F)F)c(CCC(=O)NCc3ccccc3C)c3ccccc32)c1` [BC20395], the “E: compound efficacy for NMNAT2 activation (concentration giving >25% increase in NMNAT2 luciferase activity)” value is listed as “++ (“++” >25% increase in NMNAT2 luciferase activity at >1 μM ≤25 μM.)”.
Turning to `Cc1cccc(CNC(=O)CCc2c(C(F)F)n(Cc3cc(C)ccc3C)c3ccccc23)c1` [BC20396], the “E: compound efficacy for NMNAT2 activation (concentration giving >25% increase in NMNAT2 luciferase activity)” value is “++ (“++” >25% increase in NMNAT2 luciferase activity at >1 μM ≤25 μM.)”.
As to `COc1ccccc1CNC(=O)CCc1c(C(F)F)n(Cc2cc(C)ccc2C)c2ccccc12` [BC20397], the “E: compound efficacy for NMNAT2 activation (concentration giving >25% increase in NMNAT2 luciferase activity)” value was “+ (“+” >25% increase in NMNAT2 luciferase activity at >25 μM.)”.
For the compound `COc1cccc(CNC(=O)CCc2c(C(F)F)n(Cc3cc(C)ccc3C)c3ccccc23)c1` [BC20398], the “E: compound efficacy for NMNAT2 activation (concentration giving >25% increase in NMNAT2 luciferase activity)” value is “++ (“++” >25% increase in NMNAT2 luciferase activity at >1 μM ≤25 μM.)”.
Same read-out and setting: as for `Cc1ccc(C)c(Cn2c(C(F)F)c(CCC(=O)N(CCCN3CCOCC3)Cc3ccco3)c3ccccc32)c1` [BC20399], the entry is “++ (“++” >25% increase in NMNAT2 luciferase activity at >1 μM ≤25 μM.)”.
On the same count and under the same terms, in the case of `Cc1ccc(C)c(Cn2c(C(F)F)c(CCC(=O)N3CCN(C(=O)c4ccco4)CC3)c3ccccc32)c1` [BC20400] it was “++ (“++” >25% increase in NMNAT2 luciferase activity at >1 μM ≤25 μM.)”.
As to `Cc1ccc(C)c(Cn2c(C(F)F)c(CCC(=O)NC(C)Cc3ccco3)c3ccccc32)c1` (stereo not shown) [BC20401], the “E: compound efficacy for NMNAT2 activation (concentration giving >25% increase in NMNAT2 luciferase activity)” value was “++ (“++” >25% increase in NMNAT2 luciferase activity at >1 μM ≤25 μM.)”.
The same measure, in the same setting: in the case of `Cc1ccc(C)c(Cn2c(C(F)F)c(CCC(=O)NCCc3ccccc3)c3ccccc32)c1` [BC20402] it was “++ (“++” >25% increase in NMNAT2 luciferase activity at >1 μM ≤25 μM.)”; in that of `Cc1ccc(C)c(Cn2c(C(F)F)c(CCC(=O)NCc3cccnc3)c3ccccc32)c1` [BC20403], “+ (“+” >25% increase in NMNAT2 luciferase activity at >25 μM.)”.
Regarding `Cc1ccc(C)c(Cn2c(C(F)F)c(CCC(=O)NCc3ccncc3)c3ccccc32)c1` [BC20404], the “E: compound efficacy for NMNAT2 activation (concentration giving >25% increase in NMNAT2 luciferase activity)” value is reported as “++ (“++” >25% increase in NMNAT2 luciferase activity at >1 μM ≤25 μM.)”.
Same read-out and setting: as for `Cc1ccc(C)c(Cn2c(C(F)F)c(C3CC(=O)Nc4cccc(C)c43)c3ccccc32)c1` (stereo not shown) [BC20405], the entry is “++ (“++” >25% increase in NMNAT2 luciferase activity at >1 μM ≤25 μM.)”; as for `CCCCN(CC)Cc1ccc(CNC(=O)CCc2c(C(F)F)n(Cc3cc(C)ccc3C)c3ccccc23)o1` [BC20406], “+++ (“+++” >25% increase in NMNAT2 luciferase activity at ≤1 μM.)”.

For the next assay, the system named is NMNAT2. The assay is described as follows: NMNAT2-Hibit nano-luciferase activity in transfected U87MG cells, 25 μM, 24 hours. The class given is cell-based. The conditions noted are these: NMNAT2-Hibit luc plasmid, 24 hours (Table B). The procedure: Selected compounds were tested in vitro. Briefly, U87MG cells were transfected with NMNAT2-Hibit luc plasmid. Cells were treated with a test compound at 25 μM for 24 hours. Cells were then collected and assayed for nano-luciferase activity.
With `O=C(NCc1noc2ccccc12)Nc1cccc(Cl)c1` [Compound 181001], the “B: compound efficacy (IC50) for NMNAT2 activation; increase in NMNAT2 luciferase activity” value was “+ (“+” <20% increase in NMNAT2 luciferase activity.)”.
Same read-out and setting: as for `O=C(NCc1noc2ccccc12)Nc1cccc(C(F)(F)F)c1` [Compound 181002], the entry is “+ (“+” <20% increase in NMNAT2 luciferase activity.)”; as for `Cc1ccc(NC(=O)NCc2noc3ccccc23)c(Br)c1` [Compound 181003], “+ (“+” <20% increase in NMNAT2 luciferase activity.)”; as for `Cc1ccc(NC(=O)NCc2noc3ccccc23)cc1F` [Compound 181004], “+ (“+” <20% increase in NMNAT2 luciferase activity.)”.
Same read-out and setting: as for `O=C(NCc1noc2ccccc12)Nc1ccc(F)c(Cl)c1` [Compound 181005], the entry is “+ (“+” <20% increase in NMNAT2 luciferase activity.)”.
The same measure, in the same setting: in the case of `COc1ccc(NC(=O)NCc2noc3ccccc23)cc1Cl` [Compound 181006] it was “+ (“+” <20% increase in NMNAT2 luciferase activity.)”; in that of `Cc1cc(Br)ccc1NC(=O)NCc1noc2ccccc12` [Compound 181007], “+ (“+” <20% increase in NMNAT2 luciferase activity.)”; in that of `COc1ccccc1CNC(=O)NCc1noc2ccccc12` [Compound 181008], “+ (“+” <20% increase in NMNAT2 luciferase activity.)”.
As to `CCc1ccc(NC(=O)NCc2noc3ccccc23)cc1` [Compound 181009], the “B: compound efficacy (IC50) for NMNAT2 activation; increase in NMNAT2 luciferase activity” value is “+ (“+” <20% increase in NMNAT2 luciferase activity.)”.
As to `CC(C)c1ccc(NC(=O)NCc2noc3ccccc23)cc1` [Compound 181010], the “B: compound efficacy (IC50) for NMNAT2 activation; increase in NMNAT2 luciferase activity” value is recorded as “+ (“+” <20% increase in NMNAT2 luciferase activity.)”.
On the same count and under the same terms, in the case of `Cc1ccc(Cl)cc1N(C)C(=O)NCc1noc2ccccc12` [Compound 181011] it was “+ (“+” <20% increase in NMNAT2 luciferase activity.)”; in that of `Cc1ccccc1N(C)C(=O)NCc1noc2ccccc12` [Compound 181012], “+ (“+” <20% increase in NMNAT2 luciferase activity.)”.
For `CN(C(=O)NCc1noc2ccccc12)c1cccc(Cl)c1` [Compound 181013], the “B: compound efficacy (IC50) for NMNAT2 activation; increase in NMNAT2 luciferase activity” value was “+ (“+” <20% increase in NMNAT2 luciferase activity.)”.
As to `Cc1ccc(N(C)C(=O)NCc2noc3ccccc23)cc1C` [Compound 181014], the “B: compound efficacy (IC50) for NMNAT2 activation; increase in NMNAT2 luciferase activity” value is reported as “+ (“+” <20% increase in NMNAT2 luciferase activity.)”.
Same read-out and setting: as for `CN(C(=O)NCc1noc2ccccc12)c1ccc(Br)cc1` [Compound 181015], the entry is “+ (“+” <20% increase in NMNAT2 luciferase activity.)”; as for `Cc1ccc(C)c(N(C)C(=O)NCc2noc3ccccc23)c1` [Compound 181016], “+ (“+” <20% increase in NMNAT2 luciferase activity.)”; as for `CN(C(=O)NCc1noc2ccccc12)c1ccccc1Cl` [Compound 181017], “+ (“+” <20% increase in NMNAT2 luciferase activity.)”.
On the same count and under the same terms, as for `Cc1cccc(N(C)C(=O)NCc2noc3ccccc23)c1` [Compound 181018], the entry is “+ (“+” <20% increase in NMNAT2 luciferase activity.)”; as for `COc1ccc(CNC(=O)NCc2noc3ccccc23)cc1` [Compound 181019], “+ (“+” <20% increase in NMNAT2 luciferase activity.)”; as for `CCOc1ccccc1CNC(=O)NCc1noc2ccccc12` [Compound 181020], “+ (“+” <20% increase in NMNAT2 luciferase activity.)”.
The same measure, in the same setting: as for `Cc1ccc(NC(=O)NCc2noc3ccccc23)c(Cl)c1` [Compound 181021], the entry is “+ (“+” <20% increase in NMNAT2 luciferase activity.)”; as for `Cc1ccc(CNC(=O)NCc2noc3ccccc23)cc1` [Compound 181022], “+ (“+” <20% increase in NMNAT2 luciferase activity.)”.

The values above are taken from patent US20220169632A1, “METHODS AND MATERIALS FOR INCREASING OR MAINTAINING NICOTINAMIDE MONONUCLEOTIDE ADENYLYL TRANSFERASE-2 (NMNAT2) POLYPEPTIDE LEVELS” (University of Pittsburgh - Of the Commonwealth System of …, priority 2019, published 2022).
